“And” between values parts separate entries of the source, which are not always exact repeats. Equal values may be shown once.
Test system: 233499-124-R-J3-PDC complex spheroid viability
Assay: Anticancer human tumor 233499-124-R-J3-PDC patient-derived colon adenocarcinoma cell line growth inhibition [CLK]
Conditions: for viability, T/C: stronger effect = lower value; active means viability on the fitted dose curve at most 10% of control; inactive means the rest
Outline: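 Patient-derived tumor cells grown as complex spheroids with HUVEC endothelial cells and mesenchymal stem cells, treated with drug combinations. Concentrations descend in half-log steps from near clinical Cmax, or from 10 microM if Cmax unknown.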
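Further: spheroids exposed to the drug combinations for seven days.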
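Wherever viability, T/C is given: percent viability relative to DMSO vehicle control wells taken as 100%.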

COc1cccc2c1C(=O)c1c(O)c3c(c(O)c1C2=O)CC(O)(C(=O)CO)CC3OC1CC(N)C(O)C(C)O1 (stereo unspecified) + CN1CCN(c2cc(C(=O)Nc3cc4cc(-c5cnn(C)c5)ccc4cn3)ccn2)CC1
1940 nM: IC50 (curve of first compound, second compound 0.316 µM)
2550 nM: IC50 (curve of first compound, second compound 0.0316 µM)
< 31.6 nM: IC50 (curve of first compound, second compound 1 µM) | IC50 (curve of first compound, second compound 3.16 µM) | IC50 (curve of first compound, second compound 10 µM)
inactive: viability, T/C (second compound 0.0316 µM, first compound 0.0316 µM) 80.4% | viability, T/C (second compound 0.0316 µM, first compound 0.1 µM) 110% | viability, T/C (second compound 0.0316 µM, first compound 0.316 µM) 106% | viability, T/C (second compound 0.0316 µM, first compound 1 µM) 80.9% | viability, T/C (second compound 0.0316 µM, first compound 3.16 µM) 43.2% | viability, T/C (second compound 0.0316 µM, first compound 10 µM) 10.8% | viability, T/C (second compound 0.1 µM, first compound 0.0316 µM) 98% | viability, T/C (second compound 0.1 µM, first compound 0.1 µM) 110% | viability, T/C (second compound 0.1 µM, first compound 0.316 µM) 100% | viability, T/C (second compound 0.1 µM, first compound 1 µM) 68.5% | viability, T/C (second compound 0.1 µM, first compound 3.16 µM) 30.7% | viability, T/C (second compound 0.316 µM, first compound 0.0316 µM) 84.7% | viability, T/C (second compound 0.316 µM, first compound 0.1 µM) 97.6% | viability, T/C (second compound 0.316 µM, first compound 0.316 µM) 66.5% | viability, T/C (second compound 0.316 µM, first compound 1 µM) 61.9% | viability, T/C (second compound 0.316 µM, first compound 3.16 µM) 44.4%
active: viability, T/C (second compound 0.1 µM, first compound 10 µM) 5.13% | viability, T/C (second compound 0.316 µM, first compound 10 µM) 2.79% | viability, T/C (second compound 1 µM, first compound 0.0316 µM) 0.46% | viability, T/C (second compound 1 µM, first compound 0.1 µM) 0.59% | viability, T/C (second compound 1 µM, first compound 0.316 µM) 10.8% | viability, T/C (second compound 1 µM, first compound 1 µM) 0.33% | viability, T/C (second compound 1 µM, first compound 3.16 µM) 5.03% | viability, T/C (second compound 1 µM, first compound 10 µM) 0.81% | viability, T/C (second compound 3.16 µM, first compound 0.0316 µM) 0.55% | viability, T/C (second compound 3.16 µM, first compound 0.1 µM) 0.57% | viability, T/C (second compound 3.16 µM, first compound 0.316 µM) 0.48% | viability, T/C (second compound 3.16 µM, first compound 1 µM) 0.43% | viability, T/C (second compound 3.16 µM, first compound 3.16 µM) 0.53% | viability, T/C (second compound 3.16 µM, first compound 10 µM) 0.67% | viability, T/C (second compound 10 µM, first compound 0.0316 µM) 0.35% | viability, T/C (second compound 10 µM, first compound 0.1 µM) 0.39% | viability, T/C (second compound 10 µM, first compound 0.316 µM) 0.38% | viability, T/C (second compound 10 µM, first compound 1 µM) 0.34% | viability, T/C (second compound 10 µM, first compound 3.16 µM) 0.3% | viability, T/C (second compound 10 µM, first compound 10 µM) 0.24%
1780 nM: IC50 (curve of first compound, second compound 0.1 µM)

CNC(=O)c1ccc(Nc2nc(OC3CCCC3)c3c(-c4ccc5nc(C)oc5c4)c[nH]c3n2)c(OC)c1
inactive: viability, T/C (compound 0.0316 µM) 93.9% [middle of 12 runs] | viability, T/C (compound 0.316 µM) 74% [middle of 12 runs] | viability, T/C (compound 3.16 µM) 75.3% [middle of 12 runs] | viability, T/C (compound 10 µM) 72.6% [middle of 12 runs]
> 10000 nM: IC50 (compound alone, run of 08/01/2023)

C#Cc1c(F)ccc2cc(O)cc(-c3ncc4c(N5CC6CCC(C5)N6)nc(OCC56CCCN5CC(F)C6)nc4c3F)c12 (stereo unspecified)
inactive: viability, T/C (compound 0.0316 µM) 86.1% and 87.7% | viability, T/C (compound 0.1 µM) 102% and 104% | viability, T/C (compound 0.316 µM) 95.6% and 105% | viability, T/C (compound 1 µM) 92% and 87.8% | viability, T/C (compound 3.16 µM) 89.5% and 79% | viability, T/C (compound 10 µM) 76.6% and 78.5%
> 10000 nM: IC50 (curve of compound)

C=C(F)C(=O)N1CCN(c2nc(OCC3CCCN3C)nc3c2CCN(c2cccc4cccc(Cl)c24)C3)CC1CC#N (stereo unspecified)
7840 nM and > 10000 nM: IC50 (curve of compound)
inactive: viability, T/C (compound 0.0316 µM) 99.9% and 96.2% | viability, T/C (compound 0.1 µM) 86.9% and 90.1% | viability, T/C (compound 0.316 µM) 97% and 99.1% | viability, T/C (compound 1 µM) 95.4% and 97.3% | viability, T/C (compound 3.16 µM) 94.6% and 89.2% | viability, T/C (compound 10 µM) 38% and 87.9%
